Measured values from patent publication US20230143751A1, “Aromatic Compound And Use Thereof In Preparing Antineoplastic Drugs” (Shanghai Zheye Biotechnology Co. Ltd., priority 2020, published 2023).
Like-named read-outs stand apart in the source and are kept apart here.

Experiments:
[1] = system: MIA PaCa-2-derived xenograft tumor; test: Pharmacodynamics test of MIA PaCa-2-derived xenograft tumor model in nude mice (test 6); type: in vivo
Protocol: Animal species and number: Balb/c Nude; 6 animals per group.
Test samples: Compound 3-2, Compound 3-6, Compound 3-20, Compound 3-12M.
Test groups: blank solvent control group; Compound 3-2 (10 mg/kg, QD×15 days), Compound 3-6 (10 mg/kg, QD×15 days), Compound 3-20 (10 mg/kg, QD×15 days), Compound 3-12M (10 mg/kg, QD×15 days).
(§1) Animal model establishment: MIA paca-2 tumor cells in logarithmic growth phase were cultured in vitro and collected, and inoculated subcutaneously into the right back of nude mice at a quantity of 5×10^6 cells/each. When the tumor volume reached 150-300 mm^3, the tumor-bearing nude mice were randomly grouped. Subsequently, the animals in each group were administered, and the day of the first administration was defined as day 1 of the test.
(§2) Administration route and frequency: oral administration by gavage; once a day.
(§3) General state observation: observation time and frequency: once a day; observation indexes or contents: including but not limited to administration location, appearance and signs, general behavioral activities, mental status, death and other abnormal performance of the animals. The animals were euthanized at the end of the test.
Tumor volume calculation: V=½×long diameter×short diameter^2 (mm^3). Tumor growth inhibition rate TGI (%) is used to evaluate the tumor inhibition efficacy of the compounds. TGI (%)=[1−(mean tumor volume in treatment group at the end of administration−mean tumor volume in treatment group at the beginning of administration)/(mean tumor volume in control group at the end of administration−mean tumor volume in control group at the beginning of administration)]×100%.

NCI-H358 cells = test: Cell proliferation activity of NCI-H358 by CellTiter-Glo reagent; type: cell-based
Protocol: NCI-H358 cells in exponential growth phase were digested with trypsin-EDTA, plated in a 96-well plate with 2000-3000 cells per well, and incubated overnight at 37° C. with 5% CO2. […] After the incubation, CellTiter-Glo test reagent with an equal volume was added into each well and the obtained 96-well plate was incubated after shaking. The chemiluminescence values were determined by microplate reader, and the IC50 values of the test compounds inhibiting the proliferation of NCI-H358 cells were fitted and calculated by GraphPad Prism software.
The test method of inhibitory activity was the same as that in Test 3 in “Biological Tests” part.

KRAS G12C = KRAS G12C (Homo sapiens, UniProt P01116, G12C); test: Effect on KRAS(G12C) enzyme activity (KRAS G12C/c-Raf binding, Eu/d2 energy transfer); type: biochemical
Protocol: Compound stock solution was taken, and the test compound was subjected to gradient elution in DMSO. The above diluted compound was added into a quantitative volume of enzyme reaction buffer and subjected to oscillation on a microplate oscillator for 20 min.
4 μL of enzyme was transferred to a 384-well reaction plate. 1 μL of the test compound was added into the 384-well reaction plate. The plate was sealed with sealing film, and the reaction plate with the compound was centrifuged at 1000 rpm for 1 min and incubated for 60 min. 5 μL of a mixture of substrate and antibody was transferred to the 384-well reaction plate. The plate was sealed with sealing film, then centrifuged at 1000 rpm for 1 min and incubated for 120 min at room temperature.
Ratiopositive control: average value of the ratios of 10 positive control wells; Rationegative control: average value of the ratios of 10 negative control wells.

[2] = Preliminary safety test, 5-day escalating oral dosing in Balb/c mice; type: in vivo
Protocol: Test samples: Compound 3-2, Compound 3-6, Compound 3-12M, Compound 3-20, and Compound 4-8.
Animal species and number: Balb/c; 6 animals per group (half male and half female).
Administration mode: oral administration by gavage.
Animal grouping and administration dose: vehicle blank group, Compound 3-2 group (200 mg/kg, 400 mg/kg, 800 mg/kg), Compound 3-6 group (200 mg/kg, 400 mg/kg, 800 mg/kg), Compound 3-12M group (200 mg/kg, 400 mg/kg, 800 mg/kg), Compound 3-20 group (200 mg/kg, 400 mg/kg, 800 mg/kg), Compound 4-8 group (200 mg/kg, 400 mg/kg, 800 mg/kg).
Administration frequency: once a day for 5 days.
General clinical observations were performed 2 times a day (once in the morning and once in the afternoon) during the test period. Death, morbidity, respiration, secretions, feces, and diet, drinking situation and so on were observed, and the changes in body weight of the mice during the administration period were recorded. The animals in each group were euthanized after the administration, and all animals were dissected and subjected to gross observation.

[3] = target: T1, human-derived MDR1 (MDR1 coding P-gp) transporter protein (Homo sapiens, UniProt P08183); test: Transport effect of transporter MDR1 (vesicle uptake, P-gp substrate assessment); type: in vitro ADME; settings: vesicles expressing human-derived MDR1, 37° C.
T1 construct: expressed in transfected cells; host or cells: membrane vesicles expressing human MDR1
Protocol: For this test, fluorescein and N-methylquinidine were used as the probe substrates in positive control group. ATP-containing test sample or positive control samples were prepared and pre-incubated with MDR1 vesicles at 37° C. After the pre-incubation, the two kinds of samples were mixed and co-incubated at 37° C. The samples were then transferred to a 96-well filter plate, and washed by suction filtration. The vesicles on the filter plate were lysed by using 80% of methanol, and then centrifuged to collect the filtrate. The filtrate was added with pre-cooled methanol containing internal standard. After the centrifugation, the obtained supernatant was taken and the test sample or positive control samples were detected.

[4] = system: NCI-H358-derived xenograft tumor; test: Pharmacodynamics study of H358-derived xenograft tumor model (test 9); type: in vivo, nude mice; settings: 3-12M 20 and 100 mg/kg, ARS1620 100 mg/kg, i.g., QD×28 days
Protocol: Animal species and number: Balb/c Nude; 10 animals per group.
Test samples: Compound ARS1620 (the representative inhibitor targeting KRAS G12C tumor
target, acquired by purchase) and Compound 3-12M.
Test groups: blank solvent control group;
Compound ARS1620 (100 mg/kg, i.g., QD×28 days);
Compound 3-12M (20 mg/kg, i.g., QD×28 days);
Compound 3-12M (100 mg/kg, i.g., QD×28 days).
as §1, with “NCI-H358” for “Animal model establishment: MIA paca-2”, “150˜300” for “150-300”
as §2, §3
Tumor volume calculation: V=½×long diameter×short diameter^2 (mm^3).

T1 sequence (P08183 whole entry): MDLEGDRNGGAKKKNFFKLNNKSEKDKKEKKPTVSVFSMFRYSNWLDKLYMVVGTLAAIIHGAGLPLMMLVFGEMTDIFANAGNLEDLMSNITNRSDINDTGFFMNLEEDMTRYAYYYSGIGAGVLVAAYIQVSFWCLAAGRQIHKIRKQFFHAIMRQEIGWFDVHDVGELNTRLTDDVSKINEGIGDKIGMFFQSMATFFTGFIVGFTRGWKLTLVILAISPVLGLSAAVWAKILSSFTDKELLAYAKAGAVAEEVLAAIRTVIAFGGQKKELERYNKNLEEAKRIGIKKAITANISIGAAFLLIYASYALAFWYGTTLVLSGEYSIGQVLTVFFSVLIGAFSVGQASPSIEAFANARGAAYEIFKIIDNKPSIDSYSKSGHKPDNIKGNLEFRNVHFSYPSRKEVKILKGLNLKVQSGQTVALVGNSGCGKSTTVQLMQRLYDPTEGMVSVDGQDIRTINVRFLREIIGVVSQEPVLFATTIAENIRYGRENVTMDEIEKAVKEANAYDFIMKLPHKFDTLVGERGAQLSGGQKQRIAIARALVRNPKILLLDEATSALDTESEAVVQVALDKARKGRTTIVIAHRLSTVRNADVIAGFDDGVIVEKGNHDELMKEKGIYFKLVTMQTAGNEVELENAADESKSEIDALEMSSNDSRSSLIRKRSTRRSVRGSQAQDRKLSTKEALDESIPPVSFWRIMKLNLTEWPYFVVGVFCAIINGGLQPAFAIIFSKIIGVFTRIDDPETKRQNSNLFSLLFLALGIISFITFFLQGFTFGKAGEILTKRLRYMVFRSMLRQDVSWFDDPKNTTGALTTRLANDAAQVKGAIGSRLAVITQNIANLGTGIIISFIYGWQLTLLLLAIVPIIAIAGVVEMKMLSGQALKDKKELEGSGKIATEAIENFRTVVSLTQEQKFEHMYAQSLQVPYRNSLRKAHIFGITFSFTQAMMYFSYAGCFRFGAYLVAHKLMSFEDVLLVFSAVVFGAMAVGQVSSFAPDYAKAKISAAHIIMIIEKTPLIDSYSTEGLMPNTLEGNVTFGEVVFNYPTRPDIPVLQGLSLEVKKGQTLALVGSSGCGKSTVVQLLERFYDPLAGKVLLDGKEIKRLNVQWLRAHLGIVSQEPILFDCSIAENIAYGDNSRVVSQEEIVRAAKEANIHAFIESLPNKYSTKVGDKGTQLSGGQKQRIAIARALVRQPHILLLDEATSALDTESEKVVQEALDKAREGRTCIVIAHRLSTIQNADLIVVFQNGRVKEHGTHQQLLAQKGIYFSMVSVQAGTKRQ
Chain of KRAS G12C (P01116 1-188 isoform P01116-2 G12C): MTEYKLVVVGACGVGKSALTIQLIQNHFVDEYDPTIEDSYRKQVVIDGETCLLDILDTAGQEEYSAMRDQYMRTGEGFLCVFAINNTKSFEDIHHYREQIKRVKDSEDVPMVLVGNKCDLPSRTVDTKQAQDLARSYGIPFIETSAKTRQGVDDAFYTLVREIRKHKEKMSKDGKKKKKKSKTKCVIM

[2H]C([2H])=Cc1cccc(F)c1-c1nc2c(cc1Cl)c(N1CCN(C(=O)C=C)C[C@@H]1C)nc(=O)n2-c1c(C)ccnc1C(C)C [Compound 3-12M]
inhibition effect on the growth of subcutaneously transplanted tumors derived from pancreatic cancer MIA paca-2 cells in nude mice (in words) ([1]; 10 mg/kg QD×15 days): significant inhibition effect
tumor inhibition rate compared with Compound 3-20 (in words) ([1]; 10 mg/kg QD×15 days): higher than that of Compound 3-20
Tumor inhibition rate (%) ([1]; MIA PaCa-2 xenograft, nude mice, 10 mg/kg oral gavage QD×15 days): +++ (“+++” represents a tumor inhibition rate of >80%)
anti-cell proliferation activity against KRAS G12C mutant type cells NCI-H358 (in words) (NCI-H358 cells; 72 h, CellTiter-Glo): significant anti-cell proliferation activity
IC50 (NCI-H358 cells; Homo sapiens, NCI-H358, 72 h, 72 h, CellTiter-Glo, test 3, read-out: IC50 value of cell proliferation inhibitory activity of NCI-H358): < 50 nM
cell proliferation inhibitory activity on NCI-H358 compared with the corresponding compound with axial chiral S configuration (in words) (NCI-H358 cells; NCI-H358): significantly better
cell proliferation inhibitory activity of R-configuration compound relative to the corresponding axial chiral S-configuration compound (NCI-H358 cells; NCI-H358, 3-12M versus 3-12P): more than 5 times
cell proliferation inhibitory activity of NCI-H358 compared with AMG510 (in words) (NCI-H358 cells; test 8): better than AMG510
IC50 (NCI-H358 cells; test 8, method of test 3, read-out: IC50 of proliferation inhibitory activity of the compound on NCI-H358 cell line): 8 nM
inhibitory activity on KRAS G12C enzyme compared with AMG510 (in words) (KRAS G12C): remarkable better
MTD at 5 days ([2]; both sexes, mouse, in vivo, oral gavage, 5 days, initially suggested, read-out: maximum tolerated dose): > 800 mg/kg
water and food intake, activity and body weight during the administration period (in words) ([2]; oral gavage once a day for 5 days, 200 to 800 mg/kg): no significant abnormality was showed
substrate for P-gp (in words) [3]: not a substrate for P-gp
inhibitory activity on tumor growth in vivo compared with ARS1620 (in words) [4]: significantly better than that of ARS1620
